# In patent US6596320B1, “Method for treating cancer having greater efficacy and reduced adverse effects” (BioNumerik Pharmaceuticals, Inc., priority 2002, dated 2003):
# How the values were obtained:
# [1] = tested on: MCF7/WT (breast cancer); test: Sequential treatment of MCF7/WT with Taxol followed by CDDP, % cell survival; format: cell-based, human; conditions: 2 hour
# Method: (§1) In vitro experiments were conducted to determine the efficacy of platinum/taxane combination therapy and to determine if the order of administration of the agents affected the cytotoxicity. The agents used were cisplatin (CDDP) and paclitaxel (Taxol®®), and the cell line used was MCF7/WT (breast cancer). The results of the experiments are shown below in Tables 1 and 2.
# [2] = tested on: MCF7/WT (breast cancer); test: Sequential treatment of MCF7/WT with CDDP followed by Taxol, % cell survival; format: cell-based, human; conditions: 2 hour
# Method: as §1
# [3] = cited from earlier work
structure (smiles),measurement,setting,value
"[NH2][Pt]([NH2])([Cl])[Cl] [CDDP, cisplatin]","% cell survival, Average",[1]; CDDP 4.25 uM alone,73%
same,"% cell survival, Average",[1]; CDDP 8.5 uM alone,52%
same,"% cell survival, Average",[2]; CDDP 4.25 uM alone,71%
same,"% cell survival, Average",[2]; CDDP 8.5 uM alone,50%
"O=S(=O)([O-])CCSSCCS(=O)(=O)[O-].[Na+].[Na+] [Dimesna, Disodium 2,2′-dithiobis ethane sulfonate]",interference with cytotoxic effects of co-administered antineoplastic agent(s),[3]; co-administration,not to interfere with the cytotoxic effects
same,effect on unwanted toxic effects of single agent cisplatin and single agent paclitaxel,[3]; human patients,reduce the unwanted toxic effects
"CC(=O)O[C@H]1C(=O)[C@@]2(C)[C@H]([C@H](OC(=O)c3ccccc3)[C@]3(O)C[C@H](OC(=O)[C@H](O)[C@@H](NC(=O)c4ccccc4)c4ccccc4)C(C)=C1C3(C)C)[C@]1(OC(C)=O)CO[C@@H]1C[C@@H]2O [Taxol ®, paclitaxel]","% cell survival, Average",[1]; Taxol 27 nM alone,88%
same,"% cell survival, Average",[1]; Taxol 45 nM alone,82%
same,"% cell survival, Average",[2]; Taxol 27 nM alone,71%
same,"% cell survival, Average",[2]; Taxol 45 nM alone,45%
